Data reported in US8466202B2, “Anthracenedione compounds” (Sunten Phytotech Co., Ltd., priority 2006, dated 2013).
“And” between values parts separate entries of the source, which are not always exact repeats. Identical values can stand only once.

How the values were obtained:
Format in all cases: in vivo, rat
[1] = Body weight of rats over the 10-day period (Example 3); design: Body weight Difference: unit not given here; conditions: Sennosides 3.35 mg/kg/day; for Body weight Difference, Mean / Body weight End Day 10, Mean: group mean; for Body weight Difference, Mean / Body weight Difference: Day 10 minus Day 1; for Body weight Difference / Body weight End Day 10: individual rats
Procedure: The aforementioned STD05 and compounds were studied for the laxative activity. Healthy male S.D. rats (BioLASCO Taiwan Co. Ltd.) were divided into three groups (i.e., Groups 1-3) in this study. In Group I, 6 rats, as negative control, were given no treatment; 6 rats, as positive control, were given 3.35 mg/kg/day Sennosides (Through®, Chung Mei Pharmaceutical Co., Ltd; Active ingredient: Sennosides 20 mg, as sennoside A+B 12 mg, Lot. 012F 006); 6 rats were treated STD05 (8 mg/kg/day); 6 rats were treated with an extract fraction containing aloe-emodin, rhein, and emodin (“ARE”, 8 mg/kg/day); 6 rats were treated with Aloe-emodin (4 mg/kg/day); and 6 rats were treated with Rhein (4 mg/kg/day). In Group II, 6 rats, as negative control, were given no treatment; 6 rats, as positive control, were given 3.35 mg/kg/day Sennosides; 6 rats were treated STD05 (24 mg/kg/day); 6 rats were treated with an extract fraction containing ARE (24 mg/kg/day); 6 rats were treated with Chrysophanol (4 mg/kg/day); and 6 rats were treated with Emodin (4 mg/kg/day). In Group III, 6 rats, as negative control, were given no treatment; 6 rats were treated with Physcoin (4 mg/kg/day); and 6 rats were treated with a mixture of chrysophanol and physcion (8 mg/kg/day, “CP”). The experiments were carried out under controlled temperature, humidity, and lighting. Each rat was fed standard rat food and water ad libitum in housing that provided a 12-hour light/dark cycle. For statistical comparison, all of the rats were divided into six sets according to the body weights. The first part of the experiment studied the effect of the test substances on feces production. During the 10-day period, the body weights of the rats were weighed each day and recorded. The rat's feces was also studied three times in the manner described above during the 10-day period for any unusual observations. During the 10-day period, any rat that appeared dying was euthanized, dissected, and examined for any illness or injury. Any complications or illness were analyzed by H&E stains to determine the cause of death and to allow for dosage reconsiderations for future experiments. Summarized in Table 4 below are the effects of the compounds, mixtures, or extracts on the rat body weights.

healthy male S.D. rats [2] = experiment: Feces production in rats given Rheum palmatum Linne extracts for three weeks (Example 2); conditions: oral everyday, Rheum palmatum crude extract 500, Bisacodyl 1.75, Sennosides 3.55, STD03 180, STD05-1 12, STD05-2 24 mg/kg; for Water content: feces; for Pellet count / Wet Weight: total of the six rats in the group
Procedure: The laxative activities by Rheum palmatum Linne extracts were studied. A crude Rheum palmatum Linne extract and STD05 were obtained from SunTen Phytotech Co., Ltd. (Jhonghe City, Taiwan). Commercial available laxatives, Through® (Chung Mei Pharmaceutical Co., Ltd.; active ingredient: Sennosides 20 mg, as Sennosides A+B 12 mg, Lot. 009A 051) and Dulcolax® (Boehringer Ingelheim, Taiwan, Ltd.; active ingredient: Bisacodyl; Lot. 480-4942) were obtained from a pharmacy.
Forty-two healthy male S.D. rats (8 weeks old; National Laboratory Animal Center, Taiwan) were divided into seven groups (six in each) and tested for the laxative activity by Rheum palmatum Linne extracts. The rats in one group were not fed with any extract or drug and used as negative controls. The rats in the second and third group were given Sennosides (3.55 mg/kg) and Bisacodyl (1.75 mg/kg), respectively, and used as positive controls. The Rats in the other four groups were given Rheum palmatum Linne crude extract (500 mg/kg), filtered crude extract STD03 (180 mg/kg), and STD05 (STD05-1: 12 mg/kg and STD05-2: 24 mg/kg), respectively. All substances were administered orally everyday for three weeks.
The experiments were carried out under conditions in which temperature, humidity, and lighting were all controlled. Each rat was fed standard rat food and water ad libitum in housing that provided a 12-hour light/dark cycle. The rats were divided into seven groups according to the body weights.
The first part of the experiment studied the effect of the above-mentioned extracts on feces production. During the three-week period, any rat that appeared dying was euthanized, dissected, and studied to check for any illness or injures. Any complications or illness were analyzed by H&E stains to determine the cause of death and to allow for dosage reconsiderations for future experiments.
During this period, the body weights of the rats were weighed each day and recorded. Feces of each rat were studied three times during the period for any unusual observations. Specifically, the amounts of feces were weighed on Days 11, 15, 18, and 21. During observation, each rat was placed in a metabolic cage. Feces were collected every twenty-four hours. The number of collected feces pellets was counted, and the pellets' shapes and colors were evaluated. After weighing the moist feces, they were dried in an oven at 100° C. for twenty-four hours. The water content from the feces was calculated according to the following formula: Water content percentage=[(wet weight−dry weight)/wet weight]×100%.
Intestine motility data were expressed as mean±SD. Data were analyzed using the one-way ANOVA method. For comparison within the groups, a Post hoc Comparison was applied. In both feces production and intestine motility analyses, p<0.05 indicates significant differences. For the feces production tests, the data for each group and each time point represent the total wet weight or pellet count of the six rats in the group.

healthy male S.D. rats [3] = experiment: Intestinal motility test after the feces tests (Example 3); conditions: after the 10-day feces tests; control rats 61.1%; dose not stated
Procedure: After the above-discussed feces tests, intestinal motility tests were conducted. Before the experiment, the rats were fasted for at least sixteen hours. The rats were then given the aforementioned drugs or extracts. After 3 hours, each rat was given 3 ml/kg of 0.5% methylcellulose solution-0.5% Evans blue dye. Each rat was sacrificed 30 minutes later and its abdominal cavity was cut open. The entire small intestine was extracted and carefully straightened. The entire stretch between the pylorous and cecum was measured as the small intestine length. The distance traveled by Evans blue dye along the intestines was also measured. During dissection, any unusual observations were recorded and photographed. The intestinal motility function was calculated in the following formula: Intestine motility=(Evans blue dye length/small intestine length)×100%. After finishing the feces tests, intestinal motility tests were conducted in the same manner described above. During dissection, any unusual observations were recorded and photographed. For comparison within the groups, a Post hoc Comparison was applied with p<0.05 indicating significant differences.

[4] = Group I, STD05 8 mg/kg, ARE 8 mg/kg, Aloe-emodin 4 mg/kg, Rhein 4 mg/kg
[5] = Group II, STD05 24 mg/kg, ARE 24 mg/kg, Chrysophanol 4 mg/kg, Emodin 4 mg/kg

Q: Which results are given for Sennosides?
A: Body weight Difference, Mean [1, 4]: 53 g; Body weight End Day 10, Mean [1, 4]: 338 g; Body weight Difference [1, 4]: 45 (2×) and 60 and 35 and 65 and 70; Body weight End Day 10 [1, 4]: 325 and 330 and 350 (2×) and 310 and 365; Body weight Difference, Mean [1, 5]: 41 g; Body weight End Day 10, Mean [1, 5]: 398 g; Body weight Difference [1, 5]: 30 and 45 and 40 (2×) and 35 and 55; Body weight End Day 10 ([1]; Group II, STD05 24 mg/kg, ARE 24 mg/kg, Chrysophanol 4 mg/kg, Emodin 4 mg/kg, in g (unit assumed)): 370 and 395 and 405 and 360 and 410 and 445; Water content (healthy male S.D. rats [2]; Day 11): 52.70%; Pellet count (healthy male S.D. rats [2]; Day 11): 121; Wet Weight (healthy male S.D. rats [2]; Day 11): 29.21 g; Water content (healthy male S.D. rats [2]; Day 15): 60.40%; Pellet count (healthy male S.D. rats [2]; Day 15): 119; Wet Weight (healthy male S.D. rats [2]; Day 15): 30.95 g; Water content (healthy male S.D. rats [2]; Day 18): 47.30%; Pellet count (healthy male S.D. rats [2]; Day 18): 106; Wet Weight (healthy male S.D. rats [2]; Day 18): 23.90 g; Water content (healthy male S.D. rats [2]; Day 21): 44.73%; Pellet count (healthy male S.D. rats [2]; Day 21): 123; Wet Weight (healthy male S.D. rats [2]; Day 21): 27.80 g; intestinal motility (healthy male S.D. rats [3]): 67.9%
